Experimental data taken from ChEMBL document CHEMBL3045177, “The effect of ascorbic acid supplementation on brain oxidative events in experimental diabetes” (Med Chem Res, 2010).

How the values were obtained:
[1] = test system: Rattus norvegicus; test: Neurotoxicity in Rattus norvegicus Wistar albino (rat) assessed as increase in brain glutathione level measured per gram of tissue at 20 mg/kg, administered as intragastrically after 21 days by Ellman's method (reference value: 3.5 +/- 1.0 umol); type: toxicity, organism-based; set-up: dose 20 mg/kg, route intragastric; settings: in vivo, po, 504 h
[2] = test system: Rattus norvegicus; test: Neuroprotective activity in streptozotocin-induced Rattus norvegicus Wistar albino (rat) diabetic model assessed as increase in brain total nitric oxide level measured per gram of tissue at 20 mg/kg, administered as intragastrically after 21 days by Griess assay (reference value: 100.6 +/- 10.7 umol); type: functional; settings: route intragastric
[3] = test system: Rattus norvegicus; test: Neuroprotective activity in streptozotocin-induced Rattus norvegicus Wistar albino (rat) diabetic model assessed as increase in brain glutathione level measured per gram of tissue at 20 mg/kg, administered as intragastrically after 21 days by Ellman's method (reference value: 3 +/- 0.5 umol); type: functional; settings: route intragastric
[4] = test system: Rattus norvegicus; test: Neurotoxicity in Rattus norvegicus Wistar albino (rat) assessed as increase in brain total nitric oxide level measured per gram of tissue at 20 mg/kg, administered as intragastrically after 21 days by Griess assay (reference value: 144.8 +/- 16.3 umol); type: toxicity, organism-based; set-up: dose 20 mg/kg, route intragastric; settings: in vivo, po, 504 h
[5] = test system: Rattus norvegicus; test: Neurotoxicity in Rattus norvegicus Wistar albino (rat) assessed as increase in brain ascorbic acid level measured per gram of tissue at 20 mg/kg, administered as intragastrically after 21 days by spectrphotometric analysis (reference value: 3.7 +/- 0.7 mg); type: toxicity, organism-based; set-up: dose 20 mg/kg, route intragastric; settings: in vivo, po, 504 h
[6] = test system: Rattus norvegicus; test: Neuroprotective activity in streptozotocin-induced Rattus norvegicus Wistar albino (rat) diabetic model assessed as decrease in brain malondialdehyde level measured per gram of tissue at 20 mg/kg, administered as intragastrically after 21 days by TBARS assay (reference value: 447 +/- 61.9 nmol); type: functional; settings: route intragastric
[7] = test system: Rattus norvegicus; test: Neuroprotective activity in streptozotocin-induced Rattus norvegicus Wistar albino (rat) diabetic model assessed as increase in brain ascorbic acid level measured per gram of tissue at 20 mg/kg, administered as intragastrically after 21 days by spectrphotometric analysis (reference value: 3.7 +/- 0.4 mg); type: functional; settings: route intragastric
[8] = test system: Rattus norvegicus; test: Neurotoxicity in Rattus norvegicus Wistar albino (rat) assessed as increase in brain malondialdehyde level measured per gram of tissue at 20 mg/kg, administered as intragastrically after 21 days by TBARS assay (reference value: 233.9 +/- 48.6 nmol); type: toxicity, organism-based; set-up: dose 20 mg/kg, route intragastric; settings: in vivo, po, 504 h

**Q.** For O=C1O[C@H]([C@@H](O)CO)C(O)=C1O [ASCORBIC ACID], which Activity [1] is on record?
**A.** 5.4 µmol

**Q.** And the Activity [2]?
**A.** 146.1 µmol

**Q.** And the Activity [3]?
**A.** 3.1 µmol

**Q.** And the Activity [4]?
**A.** 115.2 µmol

**Q.** And the Activity [5]?
**A.** 5.2 mg

**Q.** What about the Activity [6] of the same compound?
**A.** 204.2 nmol

**Q.** And the Activity [7]?
**A.** 4.26 mg

**Q.** And the Activity [8]?
**A.** 249.2 nmol
